Legend:
[1] = species on record: Rattus norvegicus; assay: Myotropic activity in rat assessed as levator ani muscle weight at 10 mg/day by Hershberger assay relative to intact tissue; type: functional
[2] = test system: Rattus norvegicus; assay: Myotropic activity in rat assessed as ventral prostate weight at 10 mg/kg by Hershberger assay; type: functional; conditions: Prostate gland
[3] = test system: Rattus norvegicus; assay: Myotropic activity in rat assessed as ventral prostate weight by modified Hershberger assay at 3 mg/kg; type: functional; conditions: Prostate gland
[4] = species on record: Rattus norvegicus; assay: Myotropic activity in rat assessed as levator ani muscle weight by Hershberger assay relative to intact tissue; type: functional
[5] = species on record: Rattus norvegicus; assay: Myotropic activity in rat assessed as ventral prostate weight by Hershberger assay relative to intact tissue; type: functional, Prostate gland
[6] = molecular target: T1, Androgen receptor (Homo sapiens, UniProt P10275)
T1 sequence (P10275 whole entry): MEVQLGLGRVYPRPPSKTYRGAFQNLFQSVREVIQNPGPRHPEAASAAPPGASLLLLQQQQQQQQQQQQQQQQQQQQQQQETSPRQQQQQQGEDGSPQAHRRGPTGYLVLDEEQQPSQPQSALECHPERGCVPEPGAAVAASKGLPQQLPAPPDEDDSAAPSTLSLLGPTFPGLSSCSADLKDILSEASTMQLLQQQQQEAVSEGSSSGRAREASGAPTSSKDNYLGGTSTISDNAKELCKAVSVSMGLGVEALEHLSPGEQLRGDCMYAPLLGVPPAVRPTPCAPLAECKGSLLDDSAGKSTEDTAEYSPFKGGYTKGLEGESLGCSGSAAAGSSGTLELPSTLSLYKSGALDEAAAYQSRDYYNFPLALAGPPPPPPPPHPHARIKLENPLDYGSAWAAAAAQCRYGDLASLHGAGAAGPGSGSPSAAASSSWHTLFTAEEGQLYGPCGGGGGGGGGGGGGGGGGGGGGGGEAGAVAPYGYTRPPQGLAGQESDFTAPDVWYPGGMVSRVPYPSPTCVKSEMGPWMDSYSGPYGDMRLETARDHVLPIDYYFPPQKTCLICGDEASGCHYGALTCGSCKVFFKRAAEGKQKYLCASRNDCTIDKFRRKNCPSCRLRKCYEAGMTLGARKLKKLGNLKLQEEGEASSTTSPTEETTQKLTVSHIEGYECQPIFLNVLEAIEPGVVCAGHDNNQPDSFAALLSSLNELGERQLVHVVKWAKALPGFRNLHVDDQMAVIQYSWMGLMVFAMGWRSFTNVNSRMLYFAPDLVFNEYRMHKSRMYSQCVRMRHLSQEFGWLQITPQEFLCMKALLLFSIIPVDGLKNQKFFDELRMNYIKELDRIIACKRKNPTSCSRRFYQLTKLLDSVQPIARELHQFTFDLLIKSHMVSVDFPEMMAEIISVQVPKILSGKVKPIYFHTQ
Description: Agonist activity at androgen receptor

[7] = species on record: Rattus norvegicus; assay: Myotropic activity in intact rat assessed as reduction in ventral prostate weight by Hershberger assay; type: functional, Prostate gland; parameters: scale not given: the % may be the effect or the level left
[8] = species on record: Rattus norvegicus; assay: Restoration of lean body mass in intact rat; type: functional
[9] = test system: Rattus norvegicus; assay: Myotropic activity in rat assessed as ventral prostate weight at 100 mg/kg by Hershberger assay; type: functional; conditions: Prostate gland
[10] = test system: Rattus norvegicus; assay: Suppression of hyphalamic-pituitary-gonadal axis in rat at 3 mg/kg; type: functional
[11] = species on record: Rattus norvegicus; assay: Myotropic activity in rat assessed as levator ani muscle weight at 30 mg/day by Hershberger assay relative to intact tissue; type: functional
[12] = test system: Rattus norvegicus; assay: Myotropic activity in rat assessed as ventral prostate weight at 30 mg/kg by Hershberger assay; type: functional; conditions: Prostate gland
[13] = species on record: Rattus norvegicus; assay: Suppression of hyphalamic-pituitary-gonadal axis in rat; type: functional
[14] = Volume of distribution at steady state in iv dosed rat; type: ADME, organism-based; conditions: in vivo, read-out: Vdss
[15] = species on record: Rattus norvegicus; assay: Reduction in testes weight in intact rat at 5 ug/day; type: functional, Testis; parameters: scale not given: the % may be the effect or the level left
[16] = Oral bioavailability in rat at 10 mg/kg; type: ADME, organism-based; conditions: in vivo
[17] = species on record: Rattus norvegicus; assay: Myotropic activity in rat assessed as ventral prostate weight at 0.3 mg/day by Hershberger assay; type: functional, Prostate gland
[18] = Terminal half life in iv dosed rat; type: ADME, organism-based; conditions: in vivo, read-out: beta t1/2 (converted)
[19] = species on record: Rattus norvegicus; assay: Myotropic activity in rat assessed as seminal vesicle weight by Hershberger assay relative to intact tissue; type: functional; conditions: for Emax: Rattus norvegicus, Seminal vesicle
[20] = Clearance in iv dosed rat; type: ADME, organism-based; conditions: in vivo
[21] = test system: Rattus norvegicus; assay: Myotropic activity in rat assessed as ventral prostate weight by modified Hershberger assay at 10 mg/kg; type: functional; conditions: Prostate gland
[22] = test system: Rattus norvegicus; assay: Suppression of hyphalamic-pituitary-gonadal axis in rat assessed as reduction in follicle-stimulating hormone level at 30 mg/kg; type: functional
[23] = test system: Rattus norvegicus; assay: Myoanabolic activity in castrated rat assessed as restored soleus muscle strength at 3 mg/kg; type: functional
[24] = species on record: Rattus norvegicus; assay: Osteoanabolic effect in rat assessed as reduction in osteocalcin level relative to basal level; type: functional; parameters: scale not given: the % may be the effect or the level left
[25] = test system: Rattus norvegicus; assay: Myotropic activity in rat assessed as ventral prostate weight at 3 mg/kg administered in 12 week atrophy followed by 8 weeks treatment schedule by Hershberger assay; type: functional, Prostate gland
[26] = Oral bioavailability in dog; type: ADME, organism-based, Canis lupus familiaris; conditions: in vivo
[27] = test system: Rattus norvegicus; assay: Myoanabolic activity in castrated rat assessed as restored soleus muscle strength at 10 mg/kg; type: functional
[28] = Half life in human; type: ADME, organism-based; conditions: in vivo
[29] = species on record: Rattus norvegicus; assay: Myotropic activity in rat assessed as levator ani muscle weight at 3 mg/day by modified Hershberger assay relative to intact tissue; type: functional
[30] = Rattus norvegicus, Levator ani muscle
[31] = Rattus norvegicus, Prostate gland
[32] = Rattus norvegicus, Levator ani muscle, read-out: ED50
[33] = Rattus norvegicus, Prostate gland, read-out: ED50

## C[C@@H]1CC[C@H]([C@@H](O)C(F)(F)F)N1c1ccc2[nH]c(=O)cc(C(F)(F)F)c2c1 [LGD-2941]
[1]
  Emax: 180%
[2]
  Emax at 10 mg/kg: 100%

## Cc1c(N2C(=O)[C@@H]3[C@H](O)CCN3S2(=O)=O)ccc(C#N)c1Cl
[1]
  Emax: 68%
[2]
  Emax at 10 mg/kg: 8%

## C[C@@]12CC(C(F)(F)F)=NN1C(=O)N(c1ccc(C#N)c(C(F)(F)F)c1)C2=O
[3]
  Emax at 3 mg/kg: 11%
[4]
  ED50: 2.9 mg/day
[4]; [30]
  Emax: 75%

## C[C@]12CC[C@H]3[C@@H](CCC4=CC(=O)CC[C@@]43C)[C@@H]1CC[C@@H]2O [TESTOSTERONE]
[5]
  ED50: 0.13 mg/day
[5]; [31]
  Emax: 120%
[4]
  ED50: 0.15 mg/day
[4]; [30]
  Emax: 104%

## C=C[C@@](O)(c1nc2cc(Cl)c(Cl)cc2[nH]1)C(F)(F)F
[6]
  Ki: 1.1 nM
[3]
  Emax at 3 mg/kg: 21%
[4]; [30]
  Emax: 101%
[4]; [32]
  ED50: 0.8 mg/kg
[7]
  Activity: 46%
[8]
  Activity: 20%

## CC[C@@H]1COc2c(ccc3[nH]c(=O)cc(C(F)(F)F)c23)N1CC(F)(F)F
[1]
  Emax: 100%
[9]
  Emax at 100 mg/kg: 80%
[4]
  ED50: 70 mg/day

## O=c1cc(C(F)(F)F)c2cc(N(CC(F)(F)F)CC(F)(F)F)ccc2[nH]1
[9]
  Emax at 100 mg/kg: 100%
[4]; [30]
  Emax: 150%
[10]
  Emax at 3 mg/kg: 100%

## CC[C@H]1[C@@H]2[C@@H](O)CCN2C(=O)N1c1ccc(C#N)c(Cl)c1C
[5]; [31]
  Emax: 65%
[5]; [33]
  ED50: 4.6 mg/kg
[4]; [30]
  Emax: 120%
[4]; [32]
  ED50: 0.09 mg/kg

## CN(C)C1CC(C(C)(C)CO)Nc2ccc([N+](=O)[O-])cc21 (configuration not stated)
[11]
  Emax: 115%
[12]
  Emax at 30 mg/kg: 80%

## N#Cc1ccc(N2[C@@H]3CC[C@H]2C[C@@H](O)C3)c2ccccc12
[13]
  ED50: 2.8 mg/kg
  Emax: 117%
[4]; [30]
  Emax: 66%
[4]; [32]
  ED50: 17.3 mg/kg
[12]
  Emax at 30 mg/kg: 27%

## C[C@](O)(COc1ccc(Cl)c(F)c1)C(=O)Nc1ccc(C#N)c(C(F)(F)F)c1
[14]
  Vd: 0.66 L/kg
[15]
  Activity: 94%
[5]
  ED50: 0.43 mg/day
[5]; [31]
  Emax: 138%
[16]
  bioavailability: 96%
[4]; [30]
  Emax: 139%
[17]
  Activity: 79.4%
[18]
  half-life: 11.9 h
[19]
  ED50: 0.41 mg/day
  Emax: 144%
[20]
  clearance: 0.0522 L/h/kg

## C[C@@]1(C(=O)Nc2ccc(C#N)c(C(F)(F)F)c2)CC(C(F)(F)F)=NN1
[1]
  Emax: 100%
[4]; [32]
  ED50: 3.8 mg/kg
[21]
  Emax at 10 mg/kg: 26%
[22]
  Emax at 30 mg/kg: 40%

## C[C@](O)(COc1ccc(F)cc1)C(=O)Nc1ccc([N+](=O)[O-])c(C(F)(F)F)c1
[14]
  Vd: 1.5 L/kg
[5]
  ED50: 0.42 mg/day
[5]; [31]
  Emax: 14.9%
[16]
  bioavailability: 55%
[4]
  ED50: 0.44 mg/day
[4]; [30]
  Emax: 75%
[18]
  half-life: 3.6 h
[19]
  ED50: 0.38 mg/day
  Emax: 13.4%
[20]
  clearance: 0.216 L/h/kg

## CCC(=O)O[C@H]1CC[C@H]2[C@@H]3CCC4=CC(=O)CC[C@]4(C)[C@H]3CC[C@]12C [TESTOSTERONE PROPIONATE]
[5]
  ED50: 0.13 mg/day
[5]; [31]
  Emax: 120%
[4]; [30]
  Emax: 104%
[19]
  ED50: 0.12 mg/day
  Emax: 70%

## C[C@]12CCC(=O)C[C@@H]1CC[C@@H]1[C@@H]2CC[C@]2(C)[C@@H](O)CC[C@@H]12 [STANOLONE]
[23]
  Activity: 138 kN/m2
[24]
  Activity: 50%
[25]
  Activity: 200%

## Cc1c(N2C(=O)[C@@H]3[C@H](O)CCN3C2=O)ccc(C#N)c1Cl
[13]
  ED50: 0.008 mg/kg
[5]; [31]
  Emax: 105%
[5]; [33]
  ED50: 0.14 mg/kg
[4]; [30]
  Emax: 125%
[4]; [32]
  ED50: 0.009 mg/kg

## CC(=O)Nc1ccc(OC[C@](C)(O)C(=O)Nc2ccc([N+](=O)[O-])c(C(F)(F)F)c2)cc1
[26]
  bioavailability: 91%
[23]
  Activity: 120 kN/m2
[14]
  Vd: 0.42 L/kg
[5]
  ED50: 0.43 mg/day
[5]; [31]
  Emax: 35.2%
[16]
  bioavailability: 100%
[4]
  ED50: 0.14 mg/day
[4]; [30]
  Emax: 101%
[24]
  Activity: 70%
[18]
  half-life: 2.6 h
[19]
  ED50: 0.55 mg/day
  Emax: 28.5%
[20]
  clearance: 0.06 L/h/kg
[27]
  Activity: 156 kN/m2
[25]
  Activity: 20%

## CC(=O)Nc1ccc(SC[C@](C)(O)C(=O)Nc2ccc(C#N)c(C(F)(F)F)c2)cc1 [ACETOTHIOLUTAMIDE]
[5]
  Activity: 20%
[19]
  Activity: 50%

## C[C@]12CC(C(F)(F)F)=NN1C(N)=N/C2=N\c1ccc(C#N)c(C(F)(F)F)c1
[5]; [31]
  Emax: 31%
[5]; [33]
  ED50: > 30 mg/kg
[4]; [30]
  Emax: 91%
[4]; [32]
  ED50: 2.8 mg/kg
[7]
  Activity: 26%

## C[C@](O)(CS(=O)(=O)c1ccc(F)cc1)C(=O)Nc1ccc(C#N)c(C(F)(F)F)c1 [(R)-BICALUTAMIDE]
[28]
  half-life: 140 h

## C[C@@]12CC(C(F)(F)F)=NN1[S+]([O-])N(c1ccc(C#N)c(C(F)(F)F)c1)C2=O (some centres not stated)
[3]
  Emax at 3 mg/kg: 58%
[29]
  Emax: 117%
